Assay results as given in PMC9786103, “Potent and Selective Inhibition of CYP1A2 Enzyme by Obtusifolin and Its Chemopreventive Effects” (Pharmaceutics, 2022).
Read-outs that look alike come from different tables or passages of the source.

Assays:
CYP1A1 = conditions: cited from earlier work
CYP1A2 [1] = target: T1, CYP1A2 (Homo sapiens, UniProt P05177); experiment: CYP1A2-mediated phenacetin O-deethylase (POD) activity in pooled human liver microsomes
T1 sequence (P05177 1-516): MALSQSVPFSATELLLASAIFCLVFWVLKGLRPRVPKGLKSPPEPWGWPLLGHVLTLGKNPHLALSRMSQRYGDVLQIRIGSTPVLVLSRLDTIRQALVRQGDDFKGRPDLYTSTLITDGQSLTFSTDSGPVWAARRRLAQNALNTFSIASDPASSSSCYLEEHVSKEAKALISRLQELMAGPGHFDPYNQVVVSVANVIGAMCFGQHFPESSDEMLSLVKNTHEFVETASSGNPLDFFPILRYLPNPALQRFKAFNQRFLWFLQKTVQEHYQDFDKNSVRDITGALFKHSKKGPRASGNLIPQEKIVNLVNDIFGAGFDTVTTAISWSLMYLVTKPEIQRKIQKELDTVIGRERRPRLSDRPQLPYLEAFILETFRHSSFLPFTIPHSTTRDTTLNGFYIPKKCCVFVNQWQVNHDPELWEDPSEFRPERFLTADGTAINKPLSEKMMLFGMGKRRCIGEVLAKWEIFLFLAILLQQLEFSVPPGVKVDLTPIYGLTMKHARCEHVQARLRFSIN
Experimental: The inhibitory potential of five major bioactive compounds from Cassiae semen against CYP1A2-mediated phenacetin O-deethylase (POD) activity was evaluated using previously developed methods with minor modifications. Briefly, the compounds were dissolved in methanol. The incubation mixtures containing pHLMs (0.25 mg/mL), phenacetin (100 µM), and inhibitor (0, 0.5, 2, 5, 20, or 50 µM) were pre-incubated at 37 °C for 5 min. An NADPH-generating system (NGS, 1.3 mM β-NADP^+, 3.3 mM G6P, 1.0 U/mL G6PDH, and 3.3 mM magnesium chloride) was introduced after pre-incubation to initiate the reaction, and further incubated for 15 min. The reaction was quenched by the addition of 50 µL ice-cold acetonitrile containing internal standard (IS; 7nM trimipramine). Aliquots of supernatants were analyzed by liquid chromatography–tandem mass spectrometry (LC-MS/MS, LCMS 8060 system, Shimadzu, Kyoto, Japan). All microsomal incubations were repeated three times.
The inhibitory potential of obtusifolin against the biotransformation of eight P450 probe substrates was examined using previously reported methods with slight changes. The following P450 isoform-specific substrates were used: coumarin (CYP2A6); bupropion (CYP2B6); amodiaquine (CYP2C8); tolbutamide (CYP2C9); omeprazole (CYP2C19); dextromethorphan (CYP2D6); chlorzoxazone (CYP2E1); and midazolam (CYP3A). Mixtures of pooled HLM, P450 substrates, and obtusifolin (0, 0.05, 0.2, 0.5, 2, 5, or 10 µM for CYP1A2; and 0, 0.5, 2, 5, 20, or 50 µM for the other P450 isoforms) were pre-incubated (5 min, 37 °C). NGS was introduced to start the reaction, which was followed by an additional incubation (15 min). Following reaction termination, aliquots of the supernatants were analyzed with LC-MS/MS.
Reverse phase column (Kinetex XB-C18, 100 × 2.10 mm; Phenomenex, Torrance, CA, USA) and triple-quadrupole mass spectrometer (LCMS 8060, Shimadzu, Kyoto, Japan) with an ultra high-performance LC system (Nexera X2, Shimadzu) analyze all the metabolites. Mobile phases were 0.1% formic acid in water (A) and 0.1% formic acid in acetonitrile (B). The elution condition was as follows: 0–0.5 min (B: 8%), 0.5–5 min (B: 8%→60%), 5–6 min (B: 60%), 6–6.1 min (B: 60%→8%), and 6.1–10 min (B: 8%) for the analysis of metabolites of the nine P450 substrates; and 0–1 min (B: 5%), 1–5 min (B: 5%→90%), and 5.1–7 min (B: 90%→5%) for the analysis of resorufin. Electrospray ionization was performed in the positive- and negative-ion modes at 4.0 and −3.5 kV, respectively. For each metabolite, quantitation was carried out in selected reaction monitoring (SRM) mode using the following precursor-to-product ion transition: m/z 152 > 110 for acetaminophen (CYP1A2), m/z 214 > 186 for resorufin (CYP1A1 and CYP1A2), m/z 163 > 107 for 7-hydroxycoumarin (CYP2A6), m/z 256 > 238 for 6-hydroxybupropion (CYP2B6), m/z 328 > 283 for N-desethylamodiaquine (CYP2C8), m/z 287 > 89 for 5-hydroxytolbutamide (CYP2C9), m/z 362 > 214 for 4-hydroxyomeprazole ([…]), m/z 258 > 157 for dextrorphan (CYP2D6), m/z 184 > 120 for 6-hydroxychlorzoxazone (CYP2E1), m/z 342 > 203 for 1′-hydroxymidazolam (CYP3A), and m/z 295 > 100 for trimipramine (IS).
WinNonlin software (Pharsight, Mountain View, CA, USA) was used to calculate IC50 values. Based on Lineweaver–Burk double reciprocal plots, secondary plots of Lineweaver–Burk plots versus obtusifolin concentrations, and visual inspection of Dixon plots, the type of inhibition and apparent kinetic parameters for inhibitory activity (Ki) were estimated.

rCYP1A2 = test system: rCYP1A2; set-up: method as in PMID 27633141; conditions: rCYP1A2, melatonin probe substrate; read-out: IC50 against rCYP1A2; cited from earlier work
CYP1A2 [2] = target: T1, CYP1A2; conditions: cited from earlier work
[3] = test system: CYP2C9, CYP2C19, CYP2D6, and CYP3A; conditions: cited from earlier work
CYP1A1 and CYP1A2 = conditions: cited from earlier work
CYP1A2 [4] = conditions: cited from earlier work
CYP1A2 [5] = test system: CYP1A2; set-up: method as in PMID 18814214; conditions: rat liver microsomes; read-out: Ki, CYP1A2-catalyzed POD activity; cited from earlier work
[6] = set-up: method as in PMID 21945452; conditions: humans, cited from earlier work
[7] = read-out: IC50, CYP1A2-mediated POD, HLMs
[8] = read-out: IC50, CYP2C9, CYP2C19, CYP2D6, and CYP3A (other P450 isoforms), HLMs

Compound: O=c1cc(-c2ccccc2)oc2cc(O)ccc12 [7-hydroxyflavone]
- Selectivity for CYP1A1 inhibition over CYP1A2 (CYP1A1): six-fold

Compound: Cc1cc(O)c2c(c1)C(=O)c1cccc(O)c1C2=O [Chrysophanol, chrysophanol]
- IC50 (CYP1A2 [1]): 1990 ± 230 nM
- IC50 (rCYP1A2): 290 nM

Compound: Cc1cc(O)c2c(c1)C(=O)c1cc(O)cc(O)c1C2=O [Emodin, emodin]
- IC50 (CYP1A2 [1]): 790 ± 260 nM
- IC50 (CYP1A2 [2]; microsomes): 500 nM
- IC50 ([3]; microsomes): > 9600 nM
- IC50 (CYP1A1 and CYP1A2): < 500 nM

Compound: COc1cc(O)c2c(c1)C(=O)c1cc(C)cc(O)c1C2=O [Physcion, physcion]
- IC50 (CYP1A2 [1]): 2160 ± 480 nM
- IC50 (rCYP1A2): 880 nM

Compound: COc1cc(O)c2c(O)c3c(=O)cc(C)oc3cc2c1 [Rubrofusarin, rubrofusarin]
- IC50 (CYP1A2 [1]): 6330 ± 1380 nM

Compound: C[C@H]1COc2c(N3CCN(C)CC3)c(F)c(N)c3c(=O)c(C(=O)O)cn1c23 [antofloxacin]
- Time dependence of CYP1A2 inhibition (CYP1A2 [4]): time-dependent inhibitors

Compound: COc1cc(/C=C/C(=O)CC(=O)/C=C/c2ccc(O)c(OC)c2)ccc1O [curcumin]
- IC50 (CYP1A1): 740 nM

Compound: COc1c2ccoc2c(OC)c2oc(=O)ccc12 [isopimpinellin]
- IC50 (CYP1A2 [4]): 460 nM
- Ki (CYP1A2 [4]): 1200 nM
- Time dependence of CYP1A2 inhibition (CYP1A2 [4]): time-dependent inhibitors

Compound: C[C@H](Cc1ccc2c(c1)OCO2)[C@@H](C)Cc1ccc2c(c1)OCO2 [machilin A]
- Ki (CYP1A2 [4]; read-out: Ki, CYP1A2): 710 nM

Compound: COC(=O)c1c2c(c3ccccc3c1O)OC(C)(C)C=C2 [mollugin]
- IC50 for CYP1A2-mediated POD in rCYP1A2 relative to HLMs (CYP1A2 [4]): five-fold higher
- Ki (CYP1A2 [4]): 3740 nM
- Selectivity for CYP1A2 inhibition (CYP1A2 [4]): 25 fold

Compound: O=C1c2ccccc2C(=O)c2c(O)c(O)cc(O)c21 [purpurin]
- IC50 (CYP1A2 [2]; [7]): 2300 nM
- IC50 [3, 8]: > 9600 nM

Compound: Oc1ccc(/C=C/c2cc(O)cc(O)c2)cc1 [resveratrol]
- IC50 (CYP1A1): 23000 nM
- Selectivity for CYP1A1 inhibition over CYP1A2 (CYP1A1): 51 fold

Compound: O=C(O)c1cc(O)c2c(c1)C(=O)c1cccc(O)c1C2=O [rhein]
- Ki (CYP1A2 [5]): 62000 nM
- Maximum plasma concentration ([6]; oral dose 50 mg): 9.52 µM
- Maximum plasma concentration ([6]; oral dose 100 mg): 18.8 µM

Compound: Cc1c(O)cc2c(c1O)C(=O)c1ccccc1C2=O [rubiadin]
- IC50 (CYP1A2 [2]; [7]): 1300 nM
- IC50 [3, 8]: > 9600 nM

Compound: Cc1cc2cc3c(C)cc(=O)oc3c(C)c2o1 [trioxsalen]
- IC50 (CYP1A2 [4]; read-out: IC50, CYP1A2): 790 nM

Compound: O=c1cc(-c2ccccc2)oc2c1ccc1ccccc12 [α-Naphthoflavone, α-naphthoflavone]
- IC50 (CYP1A1): 60 nM
- IC50 (CYP1A1 and CYP1A2; read-out: IC50 values, CYP1A1 and CYP1A2 activities): < 500 nM
